Measured values published in patent US20250136596A1, “MEMBRANE-ASSOCIATED TYROSINE- AND THREONINE-SPECIFIC CDC2-INHIBITORY KINASE (PKMYT1) INHIBITORS AND USES THEREOF” (Insilico Medicine IP Limited, priority 2022, published 2025).

Molecular target: PKMYT1 (Homo sapiens (Human), UniProt Q99640)
Experiment: PKMYT1 HTRF Assay
Format: binding
Conditions: Tracer 178, GST-Tb; compound 10 μM to 0.5 nM; read-out: MYT1 HTRF IC50
How it was run: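 Compound (final 10 μM to 0.5 nM) preincubated with PKMYT1 enzyme 15 min at 25° C, then Tracer 178 added for 60 min at 25° C. GST-Tb added, 15 min at 25° C, before HTRF readout.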

PKMYT1, sequence (Q99640 whole entry): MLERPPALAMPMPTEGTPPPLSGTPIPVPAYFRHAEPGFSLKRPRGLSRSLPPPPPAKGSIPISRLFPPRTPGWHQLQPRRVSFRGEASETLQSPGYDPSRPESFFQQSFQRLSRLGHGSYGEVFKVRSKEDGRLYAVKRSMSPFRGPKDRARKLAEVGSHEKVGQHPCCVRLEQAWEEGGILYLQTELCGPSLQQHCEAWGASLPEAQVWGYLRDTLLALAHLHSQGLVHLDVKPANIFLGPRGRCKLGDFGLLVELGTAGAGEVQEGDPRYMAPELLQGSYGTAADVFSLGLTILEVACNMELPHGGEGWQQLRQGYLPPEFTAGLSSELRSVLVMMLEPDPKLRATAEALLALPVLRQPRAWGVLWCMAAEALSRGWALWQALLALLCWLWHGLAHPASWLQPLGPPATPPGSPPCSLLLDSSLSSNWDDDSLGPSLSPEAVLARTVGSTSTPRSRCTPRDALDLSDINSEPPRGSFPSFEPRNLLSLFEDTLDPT

Cc1ccc(O)c(C)c1-c1cnc2[nH]c(-c3cnc(C(C)(C)O)nc3)cc2c1 [Example 88, 3-(2-(2-(2-hydroxypropan-2-yl)pyrimidin-5-yl)-1H-pyrrolo[2,3-b]pyridin-5-yl)-2,4-dimethylphenol]
IC50: 10 to 50 nM

Cc1ccc(O)c(C)c1-c1cnc2[nH]c(-c3cncc(N4CCC(O)CC4)c3)cc2c1C#N [Example 89, 5-(3-hydroxy-2,6-dimethylphenyl)-2-(5-(4-hydroxypiperidin-1-yl)pyridin-3-yl)-1H-pyrrolo[2,3-b]pyridine-4-carbonitrile]
IC50: < 10 nM

CCc1c(O)ccc(C)c1-c1cnc2[nH]c(-c3cnc(C)nc3)cc2c1C#N [Example 90, 5-(2-ethyl-3-hydroxy-6-methylphenyl)-2-(2-methylpyrimidin-5-yl)-1H-pyrrolo[2,3-b]pyridine-4-carbonitrile]
IC50: 50 to 500 nM

CCc1c(O)ccc(C)c1-c1cnc2[nH]c(-c3cnc(C)nc3)cc2c1C#N [Example 91, (R)-5-(2-ethyl-3-hydroxy-6-methylphenyl)-2-(2-methylpyrimidin-5-yl)-1H-pyrrolo[2,3-b]pyridine-4-carbonitrile]
IC50: 10 to 50 nM

Cc1ncc(-c2cc3c(C#N)c(-c4c(C)ccc(O)c4C)cnc3[nH]2)c(N)n1 [Example 92, 2-(4-amino-2-methylpyrimidin-5-yl)-5-(3-hydroxy-2,6-dimethylphenyl)-1H-pyrrolo[2,3-b]pyridine-4-carbonitrile]
IC50: < 10 nM

Cc1ccc(O)c(C)c1-c1cnc2[nH]c(-c3cnc(CN4CCCC4)nc3)cc2c1C#N [Example 93, (R)-5-(3-hydroxy-2,6-dimethylphenyl)-2-(2-(pyrrolidin-1-ylmethyl)pyrimidin-5-yl)-1H-pyrrolo[2,3-b]pyridine-4-carbonitrile]
IC50: < 10 nM

Cc1ccc(O)c(C)c1-c1cnc2[nH]c(-c3cnc(CN4CC(F)(F)C4)nc3)cc2c1C#N [Example 94, (R)-2-(2-((3,3-difluoroazetidin-1-yl)methyl)pyrimidin-5-yl)-5-(3-hydroxy-2,6-dimethylphenyl)-1H-pyrrolo[2,3-b]pyridine-4-carbonitrile]
IC50: < 10 nM

Cc1ccc(O)c(C)c1-c1cnc2[nH]c(-c3cnc(N(C)C4COC4)nc3)cc2c1C#N [Example 96, (R)-5-(3-hydroxy-2,6-dimethylphenyl)-2-(2-(methyl(oxetan-3-yl)amino)pyrimidin-5-yl)-1H-pyrrolo[2,3-b]pyridine-4-carbonitrile]
IC50: 10 to 50 nM

Cc1ccc(O)c(C)c1-c1cnc2[nH]c(-c3cnc(N4CC(C)(O)C4)nc3)cc2c1C#N [Example 97, (R)-5-(3-hydroxy-2,6-dimethylphenyl)-2-(2-(3-hydroxy-3-methylazetidin-1-yl)pyrimidin-5-yl)-1H-pyrrolo[2,3-b]pyridine-4-carbonitrile]
IC50: < 10 nM

Cc1ccc(O)c(C)c1-c1cnc2[nH]c(-c3cnc(NC4COC4)nc3)cc2c1C#N [Example 98, (R)-5-(3-hydroxy-2,6-dimethylphenyl)-2-(2-(oxetan-3-ylamino)pyrimidin-5-yl)-1H-pyrrolo[2,3-b]pyridine-4-carbonitrile]
IC50: < 10 nM

Cc1ccc(O)c(C)c1-c1cnc2[nH]c(-c3cnc(N4C5CC[C@@H]4COC5)nc3)cc2c1C#N [Example 99, (5R)-2-(2-(3-oxa-8-azabicyclo[3.2.1]octan-8-yl)pyrimidin-5-yl)-5-(3-hydroxy-2,6-dimethylphenyl)-1H-pyrrolo[2,3-b]pyridine-4-carbonitrile]
IC50: < 10 nM

Cc1ccc(O)c(C)c1-c1cnc2[nH]c(-c3cnc(N4CC(O)C(F)C4)nc3)cc2c1C#N [Example 100, (R)-2-(2-((3S,4S)-3-fluoro-4-hydroxypyrrolidin-1-yl)pyrimidin-5-yl)-5-(3-hydroxy-2,6-dimethylphenyl)-1H-pyrrolo[2,3-b]pyridine-4-carbonitrile]
IC50: < 10 nM

Cc1ccc(O)c(C)c1-c1cnc2[nH]c(-c3cnc(NCCO)nc3)cc2c1C#N [Example 101, (R)-5-(3-hydroxy-2,6-dimethylphenyl)-2-(2-((2-hydroxyethyl)amino)pyrimidin-5-yl)-1H-pyrrolo[2,3-b]pyridine-4-carbonitrile]
IC50: < 10 nM

Cc1ccc(O)c(C)c1-c1cnc2[nH]c(-c3cnc(NC4CC(O)C4)nc3)cc2c1C#N [Example 102, (R)-5-(3-hydroxy-2,6-dimethylphenyl)-2-(2-((3-hydroxycyclobutyl)amino)pyrimidin-5-yl)-1H-pyrrolo[2,3-b]pyridine-4-carbonitrile]
IC50: < 10 nM

CC#Cc1ncc(-c2cc3c(C#N)c(-c4c(C)ccc(O)c4C)cnc3[nH]2)cn1 [Example 104, (R)-5-(3-hydroxy-2,6-dimethylphenyl)-2-(2-(prop-1-yn-1-yl)pyrimidin-5-yl)-1H-pyrrolo[2,3-b]pyridine-4-carbonitrile]
IC50: < 10 nM

Cc1ccc(O)c(C)c1-c1cnc2[nH]c(-c3cnc(C(N)=O)nc3)cc2c1C#N [Example 105, (R)-5-(4-cyano-5-(3-hydroxy-2,6-dimethylphenyl)-1H-pyrrolo[2,3-b]pyridin-2-yl)pyrimidine-2-carboxamide]
IC50: < 10 nM

Cc1ccc(O)c(C)c1-c1cnc2[nH]c(-c3cnc(N)nc3)c(C)c2c1C#N [Example 106, (R)-2-(2-aminopyrimidin-5-yl)-5-(3-hydroxy-2,6-dimethylphenyl)-3-methyl-1H-pyrrolo[2,3-b]pyridine-4-carbonitrile]
IC50: < 10 nM

Cc1ncc(-c2[nH]c3ncc(-c4c(C)ccc(O)c4C)c(C#N)c3c2C2CC2)cn1 [Example 108, 3-cyclopropyl-5-(3-hydroxy-2,6-dimethylphenyl)-2-(2-methylpyrimidin-5-yl)-1H-pyrrolo[2,3-b]pyridine-4-carbonitrile]
IC50: 10 to 50 nM

C#Cc1c(-c2cnc(C)nc2)[nH]c2ncc(-c3c(C)ccc(O)c3C)c(C#N)c12 [Example 109, (S)-3-ethynyl-5-(3-hydroxy-2,6-dimethylphenyl)-2-(2-methylpyrimidin-5-yl)-1H-pyrrolo[2,3-b]pyridine-4-carbonitrile]
IC50: < 10 nM

Cc1ncc(-c2[nH]c3ncc(-c4c(C)ccc(O)c4C)c(C#N)c3c2C#CC(C)(C)O)cn1 [Example 110, (S)-5-(3-hydroxy-2,6-dimethylphenyl)-3-(3-hydroxy-3-methylbut-1-yn-1-yl)-2-(2-methylpyrimidin-5-yl)-1H-pyrrolo[2,3-b]pyridine-4-carbonitrile]
IC50: < 10 nM

Cc1ncc(-c2[nH]c3ncc(-c4c(C)ccc(O)c4C)c(C#N)c3c2C#CC2(O)COC2)cn1 [Example 111, (S)-5-(3-hydroxy-2,6-dimethylphenyl)-3-((3-hydroxyoxetan-3-yl)ethynyl)-2-(2-methylpyrimidin-5-yl)-1H-pyrrolo[2,3-b]pyridine-4-carbonitrile]
IC50: < 10 nM

Cc1ncc(-c2[nH]c3ncc(-c4c(C)ccc(O)c4C)c(C#N)c3c2C(F)(F)F)cn1 [Example 112, 5-(3-hydroxy-2,6-dimethylphenyl)-2-(2-methylpyrimidin-5-yl)-3-(trifluoromethyl)-1H-pyrrolo[2,3-b]pyridine-4-carbonitrile]
IC50: 10 to 50 nM

Cc1ncc(-c2[nH]c3ncc(-c4c(C)ccc(O)c4C)c(C#N)c3c2Sc2ccccc2)cn1 [Example 113, 5-(3-hydroxy-2,6-dimethylphenyl)-2-(2-methylpyrimidin-5-yl)-3-(phenylthio)-1H-pyrrolo[2,3-b]pyridine-4-carbonitrile]
IC50: 50 to 500 nM

Cc1ncc(-c2nc3cc(-c4c(C)ccc(O)c4C)cnc3[nH]2)cn1 [Example 114, 2,4-dimethyl-3-(2-(2-methylpyrimidin-5-yl)-3H-imidazo[4,5-b]pyridin-6-yl)phenol]
IC50: 50 to 500 nM

Cc1ccc(O)c(C)c1-c1cnc2[nH]c(-c3cnc(NC4CC4)s3)nc2c1 [Example 115, 3-(2-(2-(cyclopropylamino)thiazol-5-yl)-3H-imidazo[4,5-b]pyridin-6-yl)-2,4-dimethylphenol]
IC50: 50 to 500 nM

Cc1ccc(O)c(C)c1-c1cnc2[nH]c(-c3cnc(N)nc3)nc2c1C#N [Example 116, (S)-2-(2-aminopyrimidin-5-yl)-6-(3-hydroxy-2,6-dimethylphenyl)-3H-imidazo[4,5-b]pyridine-7-carbonitrile]
IC50: < 10 nM

Cc1ccc(O)c(C)c1-c1cnc2[nH]c(-c3cnn(CC(C)(C)O)c3)cc2c1C#N [Example 117, (S)-5-(3-hydroxy-2,6-dimethylphenyl)-2-(1-(2-hydroxy-2-methylpropyl)-1H-pyrazol-4-yl)-1H-pyrrolo[2,3-b]pyridine-4-carbonitrile]
IC50: < 10 nM

Cc1ccc(O)c(C)c1-c1cnc2[nH]c(-c3cnn(C)c3)cc2c1C#N [Example 118, (S)-5-(3-hydroxy-2,6-dimethylphenyl)-2-(1-methyl-1H-pyrazol-4-yl)-1H-pyrrolo[2,3-b]pyridine-4-carbonitrile]
IC50: < 10 nM

Cc1ccc(O)c(C)c1-c1cnc2[nH]c(-c3cnoc3)cc2c1C#N [Example 119, (S)-5-(3-hydroxy-2,6-dimethylphenyl)-2-(isoxazol-4-yl)-1H-pyrrolo[2,3-b]pyridine-4-carbonitrile]
IC50: < 10 nM

Cc1ccc(O)c(C)c1-c1cnc2[nH]c(-c3cc[nH]n3)cc2c1C#N [Example 120, (S)-5-(3-hydroxy-2,6-dimethylphenyl)-2-(1H-pyrazol-3-yl)-1H-pyrrolo[2,3-b]pyridine-4-carbonitrile]
IC50: < 10 nM

Cc1ccc(O)c(C)c1-c1cnc2[nH]c(-n3cncn3)cc2c1C#N [Example 121, (S)-5-(3-hydroxy-2,6-dimethylphenyl)-2-(1H-1,2,4-triazol-1-yl)-1H-pyrrolo[2,3-b]pyridine-4-carbonitrile]
IC50: < 10 nM

Cc1ccc(O)c(C)c1-c1cnc2[nH]c(-n3ccnc3)cc2c1C#N [Example 122, (S)-5-(3-hydroxy-2,6-dimethylphenyl)-2-(1H-imidazol-1-yl)-1H-pyrrolo[2,3-b]pyridine-4-carbonitrile]
IC50: < 10 nM

Cc1ccc(O)c(C)c1-c1cnc2[nH]c(-c3cnc4[nH]ncc4c3)cc2c1C#N [Example 123, (S)-5-(3-hydroxy-2,6-dimethylphenyl)-2-(1H-pyrazolo[3,4-b]pyridin-5-yl)-1H-pyrrolo[2,3-b]pyridine-4-carbonitrile]
IC50: < 10 nM
